Assays:
[1] = test system: tuberculosis bacilli; settings: according to Khomutov; cited from earlier work
[2] = test system: glutamate-aspartate transaminase; settings: according to Khomutov; cited from earlier work
[3] = test system: Micrococcus luteus; experiment: Filter disc bioassay on agar plates seeded with Micrococcus luteus; type: cell-based; settings: for ZONE SIZE: M. luteus, overnight 37° C.
Procedure: Samples were applied to filter discs in the amounts indicated. The discs were applied to agar plates seeded with Micrococcus luteus, and the plates were incubated overnight at 37° C. The results are illustrated in FIG. 5 and summarized in the following Table 1: Samples were assayed as in Example 3, with the results summarized in the following Table 2: […]

NC1CCONC1=O (racemic) [cyclocanaline, 4-amino-tetrahydro-1,2-oxazin-3-one]
activity against tuberculosis bacilli [1]: exhibits activity against tuberculosis bacilli | inhibition of glutamate-aspartate transaminase [2]: known to lnhibit glutamate-aspartate transaminase

O=C(O)CN1OC=C(O)CC1=O [Example 1, 2-Carboxymethyl-5-hydroxy-1,2-oxazin-3-one]
antibacterial activity ([3]; in words, from Tables 1 and 2): weak antibacterial activity | antibacterial activity, times less than that of penicillin ([3]; relative to penicillin, from Tables 1 and 2): at least 1000 times

CC(CN1OC=C(O)CC1=O)C(=O)O (stereo not shown) [Example 2, 2-[2-Carboxypropyl]-5-hydroxy-1,2-oxazin-3-one]
activity, times the activity of the carboxymethyl product ([3]; relative to product of Example 1, from Tables 1 and 2): approximately 50 times

CC1=C(C(=O)O)N2C(=O)[C@@H](NC(=O)Cc3ccccc3)[C@H]2SC1 [desacetoxycephalosporin G]
ZONE SIZE ([3]; Table 2, 2.5 micrograms on filter disc): 2.5 cm

CC1(C)S[C@@H]2[C@H](NC(=O)Cc3ccccc3)C(=O)N2[C@H]1C(=O)O [penicillin G]
ZONE SIZE ([3]; Table 1, 0.1 micrograms on filter disc): 1.6 cm

From US6660734B1, “Oxazinones having antibacterial activity” (Simon Fraser University, priority 1997, dated 2003)
